# Legend:
# human Kv7.2+3 [1] = biological target: T1, human Kv7.2+3 (Homo sapiens, UniProt O43525+O43526); experiment: FLIPR-based thallium influx characterization of Kv7.2+3 modulators; type: cell-based; parameters: expressed in transfected cells; host or cells: HEK293; conditions: for EC50: HEK293 cells over-expressing human Kv7.2+3, Tl+ influx, relative to retigabine control responses; for Efficacy: maximal response relative to the reference (retigabine) response
# Description: This experiment determines the ability of a test compound to modulate the activity of Kv7.2+3 channels heterologously expressed in human HEK293 cells. The ability is determined relative to retigabine. The activity is determined using a standard thallium (I) sensitive assay, e.g. using a fluorometric method in a Fluorescent Image Plate Reader (FLIPR) as described below in more detail.
# Full concentration/response curves are generated and EC50 values are calculated based on max values. EC50 values (Effective Concentration) represent the concentration of the test substance, at which 50% of the channel activity is obtained when compared to retigabine control responses. Maximal response determined relative to the reference (retigabine) response is calculated.
# Human HEK293 cells over-expressing human Kv7.2+3 are grown in culture medium (DMEM supplemented with 10% foetal bovine serum), in polystyrene culture flasks ([…]) in a humidified atmosphere of 5% CO2 in air, at 37° C. Cell confluence should be 80-90% on day of plating. Cells are rinsed with 4 ml of PBS (phosphate buffered saline) and incubated 2 min with 1 ml of Trypsin-EDTA. After addition of 25 ml of culture medium cells are re-suspended by trituration with a 25 ml pipette.
# The cells are seeded at a density of ˜3×10^6 cells/ml (25 μl/well) in black-walled, clear bottom, 384-well plates pre-treated with 0.01 g/I poly-D-lysin (20 μl/well for 30 min). Plated cells were allowed to proliferate for 24 h before loading with dye.
# BTC-AM ([…], Invitrogen) is added 25.5 μl DMSO. The BTC-AM stock solution (2 mM) is diluted to a final concentration of 2 μM in Cl^− free assay buffer (in mM: 140 Na^+-gluconate, 2.5 K^+-gluconate, 6 Ca2^+-gluconate, 1 Mg^2+ gluconate, 5 glucose, 10 HEPES, pH 7.3) containing 2 μM ouabain, 2 mM amaranth and 1 mM tartrazine. […]
# After the loading period, the TI^+-sensitive BTC fluorescence signal is measured over time using a FLIPR.
# • Temperature: Room temp. • First addition: 12 μl test or control compound after 15 sec at a rate of 30 μl/sec and starting height of 20 μl • Second addition: 12 μl stimulus buffer (CI^− free assay buffer supplemented with 1 mM TI2SO4, 5 mM K2SO4 as well as the quenchers amaranth (2 mM) and tartrazine (1 mM)) is added after an additional 3 minutes at a rate of 30 μl/sec and starting height of 30 μl • Reading intervals: First sequence—3 sec×5, 2 sec×24 and 5 sec×25 Second sequence—1 sec×5, 2 sec×24 and 5 sec×36 Addition plates (compound plate and stimulus plate) are placed in positions 2 and 3, respectively. […] Fluorescence obtained after stimulation is corrected for the mean basal fluorescence (in Cl^− free assay buffer). […]
# human Kv7.2+3 [2] = biological target: T1, human Kv7.2+3; experiment: patch-clamp, HEK293 cell lines stably expressing human Kv7.2+3 channels; type: cell-based; parameters: expressed in transfected cells; conditions: −30 mV, 20 ms, baseline current defined as 100%
# Excerpt: The effect obtained by these channel activators is described as a percentage increase in baseline current at a given concentration. The baseline current is defined as 100%, and an increase in current is expressed relative to this, i.e. an increase from 1 nA to 1.2 nA is reported as 120%.
SMILES,EC50 (human Kv7.2+3 [1]),Efficacy (human Kv7.2+3 [1]),IK (%) (human Kv7.2+3 [2]; conc. 0.03 μM),IK (%) (human Kv7.2+3 [2]; conc. 0.3 μM)
"Cc1ccoc1C(=O)Nc1c(C)cc(N2CCCOCC2)nc1C(C)C [Compound 1.1, 3-Methyl-furan-2-carboxylic acid(2-isopropyl-4-methyl-6-[1,4]oxazepan-4-yl-pyridin-3-yl)-amide]",34 nM,82%,177 (n = 2) %,249%
"Cc1ccoc1C(=O)Nc1c(C)cc(N2CCCOCC2)nc1C [Compound 1.2, 3-Methyl-furan-2-carboxylic acid(2,4-dimethyl-6-[1,4]oxazepan-4-yl-pyridin-3-yl)-amide]",4100 nM,102%,–,180%

# From US20120232058A1, “SUBSTITUTED PYRIDINE DERIVATIVES AND THEIR MEDICAL USE” (NEUROSEARCH A/S, priority 2009, published 2012)
